In patent US4990531A, “Derivatives of 1-arylsulphonyl-2-pyrrolidinone and their use as medicaments” (Roussel Uclaf, priority 1988, dated 1991) one finds IC50 data, which are given here for two compounds.

The target in one assay is Muscarine receptor 2. Put plainly: Bonding with cerebral receptors: muscarine receptor 2 (3H quinuclidinyl benzylate, rat brain). In kind it is binding. The conditions noted are these: 0.3 nM 3H quinuclidinyl benzylate, 60 min, 25° C., pH 7.5; read-out: Affinity for muscarine receptor M2 (/3H/Quinuclidinyl benzylate), IC50. How it is done:
The preparation is made from the brains of a male rat weighing 150 to 200 g (Iffa Credo).
The brains are pulverized (Teflon-glass) in a 0.32M solution of sucrose. The homogenate is centrifuged for 10 minutes at 1000 g (0°-4° C.).
The supernatant obtained is recovered and centrifuged at 30,000 g for 15 minutes (0°-4° C.).
The deposit is put in suspension in a buffer Tris 50 mM pH 7.5 and the new homogenate is centrifuged again at 30,000 g for 15 minutes (0°-4° C.).
The deposits after elimination of the supernatant, can be used straight-away or kept for up to one month at -30° C.
For one experiment the deposits are first of all thawed out, if necessary, to ambient temperature and put in suspension, using a Dounce, in a buffer Tris 50 mM pH 7.5. Aliquots of 2 ml are incubated for 60 minutes at 25° C. in the presence of 0.3 nM of ^3 H quinuclidinyl benzylate either alone, or with the product under test, or with benzatropine at 10^-5 M in order to determine the non-specific radioactivity fixed.
At the end of the incubation the incubate tubes are cooled to 4° C. and filtered rapidly on Whatman GF/C filters. The filters are rinsed with 3×5 ml of buffer Tris 50 mM pH 7.5, then measurements are made by liquid scintillation [Henry I Yamamura, Solomon H. Snyder, Proc. Nat. Acad. Sc. (1974) 71 No. 5, 1725-1729).

For a further assay, the target named is T1, Muscarine receptor 1 (Rattus norvegicus, UniProt P08482).
T1 construct: prepared from cortex removed from the brains of a male rat; from tissue; host or cells: rat cerebral cortex homogenate (male rat, Iffa Credo)
Put plainly: Bonding with cerebral receptors: muscarine receptor 1 (3H pirenzepine, rat cortex). The note with it: 0.25 nM 3H pirenzepine, 60 min, 25° C., pH 7.4; read-out: Affinity for muscarine receptor M1 (/3H/Pirenzepine), IC50. In kind it is binding. How it is done: This is prepared from cortex removed from the brains of a male rat weighing 150 to 200 g, (Iffa Credo) pulverized with Polytron in a buffer Na/K 10 mM pH 7.4. After incubation (aliquots of 0.5 ml of homogenate) for 60 minutes at 25° C. in the presence of 0.25 nM of ^3 H pirenzepine, either alone, or with the product under test, or with an excess of pirenzepine at 10^-5 M (in order to determine the non-specific radioactivity fixed), the incubates are cooled and filtered.
The filtration is carried out on Whatman GF/C filters prewashed in a solution of polyethylene-imine at 0.05%. The filters are rinsed with 3×5 ml of phosphate Na/K buffer 10 mM pH 7.4, then measurements are made by liquid scintillation.

Assay [1] has as its system contractions induced by serotonine, isolated ileum. Put plainly: Antagonism of serotonine-induced contractions, isolated guinea-pig ileum. The note with it: serotonine 1×10^-6 M; contact time one minute; read-out: Antagonism with various agents (IC50): Seroton. How it is done:
The interaction of the compounds with various receptors was evaluated on the isolated ileum of a guinea-pig according to the following method.
Segments of the ileum of guinea-pigs of 2.5-3 cm were washed and immediately suspended in a bath containing 10 ml of Tyrode's solution at 37° C. and aerated with a mixture of oxygen (95%) and carbon dioxide (5%). After a stabilization period of at least 30 minutes contractions were recorded, while the preparation was maintained under constant tension of 1 g, by means of a detector connected to a polygraph. The agonistic action was evaluated by leaving the compound in contact with the isolated tissue for a period necessary to show the maximum […]; then it was washed with the Tyrode's solution. The following dose was added only after the preparation had returned to its base line. Arecoline was used as a reference product. The antagonist action was evaluated on the contractions induced by acetylcholine (1×10^-6 M), histamine (1×10^-5 M), serotonine (1×10^-6 M) and barium chloride (2×10^-4 M). […] The contact time before adding the agonist was one minute.
For each compound the does response curves are obtained with 4 to 6 different concentrations and 3 to 5 independent tests. The agonist activity is expressed by pD2 (negative logarithm of the dose which produces 50% of the maximum effect).

Assay [2] relates to contractions induced by acetylcholine, isolated colon. As to the kind of experiment: Antagonism of acetylcholine-induced contractions, isolated colon of rat. The conditions noted are these: acetylcholine 3×10^-6 M; contact 3 minutes. How it is done:
The remarkable antagonist action of the compounds of the invention was confirmed on the isolated colon of rats. In this test it was established whether the antagonist activity was of competitive or non-competitive type.
The following method was used: segments of the colon of rats of about 2.5 cm are washed and suspended in an insulated bath containing 10 ml of a solution of De Jalon having the following composition: (mM): NaCl 154; KCl 5.7; CaCl2 0.27; NaHCO3 5.9 and glucose 2.5. The temperature of the bath is maintained at 32° C. In these conditions, while maintaining the preparation under a tension of 1 g, the spontaneous activity of the colon is minimal. After a stabilization period of at least 30 minutes, the tension variations are recorded using an isometric transducer connected to a recorder. A series of tests was carried out to evaluate the antagonist activity in relation to the contractions induced by a maximum dose of acetylcholine. (3×10^-6 M).
The compounds are left in contact with the preparation for 3 minutes before adding acetylcholine.
Atropine was used as a reference product. For each compound the dose-response curves are obtained with 4 to 6 different concentrations and 3 to 5 independent tests.

The target of another assay is opiated receptor mu (Homo sapiens, UniProt P35372). As to the kind of experiment: Affinity for other receptors: opiated receptor mu. The conditions noted are these: negligible affinity. In kind it is binding.
Assay [3] addresses serotonine 5 HT1 receptor. Put plainly: Affinity for other receptors: serotonine 5 HT1. In kind it is binding. The note with it: negligible affinity.

Sequence of opiated receptor mu (P35372 whole entry): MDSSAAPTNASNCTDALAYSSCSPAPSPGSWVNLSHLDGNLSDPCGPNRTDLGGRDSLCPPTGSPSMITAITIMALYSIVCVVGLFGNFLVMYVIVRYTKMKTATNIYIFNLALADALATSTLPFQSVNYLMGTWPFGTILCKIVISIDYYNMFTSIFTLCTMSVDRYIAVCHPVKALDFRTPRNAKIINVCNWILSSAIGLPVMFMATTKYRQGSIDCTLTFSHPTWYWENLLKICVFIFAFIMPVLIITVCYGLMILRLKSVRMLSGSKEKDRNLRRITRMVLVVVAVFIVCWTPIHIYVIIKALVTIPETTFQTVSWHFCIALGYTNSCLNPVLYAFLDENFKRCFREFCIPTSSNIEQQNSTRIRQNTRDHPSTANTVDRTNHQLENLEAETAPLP
T1 sequence (P08482 whole entry): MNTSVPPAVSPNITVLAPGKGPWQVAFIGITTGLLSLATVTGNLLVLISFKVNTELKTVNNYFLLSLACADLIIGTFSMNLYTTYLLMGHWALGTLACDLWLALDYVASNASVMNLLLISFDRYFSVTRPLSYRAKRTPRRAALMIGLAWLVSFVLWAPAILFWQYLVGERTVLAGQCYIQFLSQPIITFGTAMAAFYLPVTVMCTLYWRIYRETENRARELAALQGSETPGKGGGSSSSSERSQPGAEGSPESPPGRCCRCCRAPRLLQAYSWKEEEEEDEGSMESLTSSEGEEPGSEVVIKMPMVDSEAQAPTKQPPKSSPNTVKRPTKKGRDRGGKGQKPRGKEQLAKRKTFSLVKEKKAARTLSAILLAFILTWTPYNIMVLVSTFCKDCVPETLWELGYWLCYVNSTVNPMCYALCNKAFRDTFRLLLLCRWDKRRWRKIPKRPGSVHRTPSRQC

Turning to `CCN(CC)c1ccc(S(=O)(=O)N2CCCC2=O)cc1` [Example 2, 1-[4-(diethylamino)benzenesulphonyl]-2-pyrrolidinone], the IC50 at Muscarine receptor 2 was 1.3 µM; on Muscarine receptor 1, 0.098 µM; in assay [1], above 100 µM; in assay [2] it was 0.16 µM; on opiated receptor mu, 5 to 10 µM; in assay [3] it was 5 to 10 µM.

Turning to `CC(C)(C)c1ccc(S(=O)(=O)N2CCCC2=O)cc1` [Example 1, 1-(4-tert-butylbenzenesulphonyl)-2-pyrrolidinone], the IC50 is 1.3 µM on Muscarine receptor 2; 0.13 µM on Muscarine receptor 1; above 100 µM in assay [1]; 0.28 µM in assay [2]; 5 to 10 µM on opiated receptor mu; 5 to 10 µM in assay [3].
